Several values for one entry are separate records, joined by “and”; a condition that tells them apart may be missing. Equal values may be shown once.
Key:
[1] = Biodistribution studies of the 18F tracers in rats; format: in vivo, male Wistar rats; conditions: rat, i.v.
Protocol: Biodistribution studies were carried out in healthy male Wister rats (body weight 200-500 g) at 2 min, 30 min and 60 min post injection (p.i.) (n=3/time point). For |^18F|B-4 only the 2 min and 30 min time points were studied. […] Blood and major organs were collected in tared tubes and weighed. The radioactivity in blood, organs and other body parts was measured using an automated gamma counter. The distribution of radioactivity in different parts of the body at different time points p.i. of the tracer was calculated and expressed as percentage of injected dose (% ID), and as percentage of injected dose per gram tissue (% ID/g) for the selected organs. % ID is calculated as cpm in organ/total cpm recovered. For calculation of total radioactivity in blood, blood mass was assumed to be 7% of the body mass.

[2] = target: T1, PDE10A (Rattus norvegicus, UniProt Q9QYJ6); experiment: MicroPET imaging studies; format: in vivo, male Wistar rats
T1 construct: from tissue; host or cells: brain (striatum) of living male Wistar rats, in vivo microPET
T1 sequence (Q9QYJ6 1-794): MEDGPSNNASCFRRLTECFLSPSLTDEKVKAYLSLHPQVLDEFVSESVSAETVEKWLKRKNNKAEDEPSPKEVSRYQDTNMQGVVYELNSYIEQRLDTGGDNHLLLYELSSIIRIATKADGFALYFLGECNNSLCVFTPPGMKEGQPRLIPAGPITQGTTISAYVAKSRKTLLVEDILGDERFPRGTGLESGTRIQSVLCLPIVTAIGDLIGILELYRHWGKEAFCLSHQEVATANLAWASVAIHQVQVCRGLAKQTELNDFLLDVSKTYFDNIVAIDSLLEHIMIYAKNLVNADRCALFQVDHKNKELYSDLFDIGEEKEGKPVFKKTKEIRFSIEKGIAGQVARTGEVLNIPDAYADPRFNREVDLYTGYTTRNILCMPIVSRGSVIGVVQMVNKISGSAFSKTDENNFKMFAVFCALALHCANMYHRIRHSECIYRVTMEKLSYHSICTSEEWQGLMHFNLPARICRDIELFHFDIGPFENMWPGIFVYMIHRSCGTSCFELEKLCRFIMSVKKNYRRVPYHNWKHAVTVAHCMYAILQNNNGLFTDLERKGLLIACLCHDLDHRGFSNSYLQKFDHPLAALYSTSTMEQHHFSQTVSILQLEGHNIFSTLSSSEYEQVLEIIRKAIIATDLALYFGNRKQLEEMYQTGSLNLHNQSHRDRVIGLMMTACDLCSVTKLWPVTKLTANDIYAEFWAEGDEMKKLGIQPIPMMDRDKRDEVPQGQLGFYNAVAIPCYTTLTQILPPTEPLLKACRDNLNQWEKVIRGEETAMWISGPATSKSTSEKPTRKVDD
Protocol: Imaging experiments were performed on a Focus™ 220 microPET scanner (Concorde Microsystems, Knoxville, Tenn., USA) using male Wistar rats with body weight varying between 300 and 600 g. […] Dynamic scans of 120 min were acquired in list mode. After reconstruction of the images, they were semi-automatically co-registered with a [^11C]raclopride template of the rat brain, and volumes of interest (VOIs) were generated for different anatomical brain structures (striatum, cerebral cortex and cerebellum) from which time-activity curves (TAC) were constructed for each individual image, using PMOD software (PMOD Technologies Ltd.). Normalization for body weight of the animal and injected dose was done. The radioactivity concentration in the different brain regions was expressed as SUV (standardized uptake value) as a function of time in seconds post injection of the radiotracer. The parametric binding potential (BP) values were calculated for all acquired images by using a simplified reference tissue model where the TAC of the cerebellum was used as input TAC for non-specific binding, using the same software (PMOD).
The radioactivity concentration in the different brain regions was expressed as SUV value as a function of time p.i. of the radiotracer by normalization for body weight of the animal and injected dose.

In the case of `COc1ccc(COc2ccc(-c3nn(CC[18F])cc3-c3ccncc3)cc2)nc1` [[^18F]B-4], the “total initial brain uptake” value ([1]; 2 min p.i.) is reported as 0.40 % ID, the “% ID in the urinary system” value ([1]; 30 min p.i.) is reported as about 2.5 % ID and the “% ID, Blood” value ([1]; 30 min p.i.) is reported as 3.35 ± 0.5 % ID. For the same compound, the “% ID, Carcass” value ([1]; 30 min p.i.) was 26.15 ± 1.2 % ID, the “% ID, Cerebellum” value ([1]; 30 min p.i.) was 0.028 ± 0.002 % ID and the “% ID, Cerebrum total” value ([1]; 30 min p.i.) was 0.208 ± 0.027 % ID. For the same compound, the “% ID, Cortex” value ([1]; 30 min p.i.) was 0.022 ± 0.002 % ID, the “% ID, Heart” value ([1]; 30 min p.i.) was 0.28 ± 0.1 % ID and the “% ID, Hippocampus” value ([1]; 30 min p.i.) was 0.004 ± 0.000 % ID. For the same compound, the “% ID, Intestines” value ([1]; 30 min p.i.) was 12 % ID and 11.98 ± 1.9 % ID, the “% ID, Kidneys” value ([1]; 30 min p.i.) was 1.71 ± 0.3 % ID and the “% ID, Liver” value ([1]; 30 min p.i.) was 47 % ID and 47.40 ± 3.5 % ID. The “% ID, Lungs” value ([1]; 30 min p.i.) was 0.35 ± 0.1 % ID, the “% ID, Rest of cerebrum” value ([1]; 30 min p.i.) was 0.162 ± 0.030 % ID and the “% ID, Spleen + Pancreas” value ([1]; 30 min p.i.) was 0.56 ± 0.1 % ID. The “% ID, Stomach” value ([1]; 30 min p.i.) was 8 % ID and 8.08 ± 3.7 % ID, the “% ID, Striatum” value ([1]; 30 min p.i.) was 0.019 % ID and 0.019 ± 0.003 % ID and the “% ID, Urine” value ([1]; 30 min p.i.) was 0.75 ± 0.1 % ID. For the same compound, the “% ID/g normalized for body weight, Blood” value ([1]; 30 min p.i.) was 0.05 ± 0.01 % ID/g × body wt. in kg, the “% ID/g normalized for body weight, Cerebellum” value ([1]; 30 min p.i.) was 0.029 ± 0.00 % ID/g × body wt. in kg and the “% ID/g normalized for body weight, Cerebrum + Cerebellum” value ([1]; 30 min p.i.) was 0.04 ± 0.00 % ID/g × body wt. in kg. For the same compound, the “% ID/g normalized for body weight, Cerebrum total” value ([1]; 30 min p.i.) was 0.043 ± 0.00 % ID/g × body wt. in kg, the “% ID/g normalized for body weight, Cortex” value ([1]; 30 min p.i.) was 0.040 ± 0.01 % ID/g × body wt. in kg and the “% ID/g normalized for body weight, Heart” value ([1]; 30 min p.i.) was 0.07 ± 0.01 % ID/g × body wt. in kg. For the same compound, the “% ID/g normalized for body weight, Hippocampus” value ([1]; 30 min p.i.) was 0.029 ± 0.00 % ID/g × body wt. in kg, the “% ID/g normalized for body weight, Kidneys” value ([1]; 30 min p.i.) was 0.19 ± 0.03 % ID/g × body wt. in kg and the “% ID/g normalized for body weight, Liver” value ([1]; 30 min p.i.) was 1.05 ± 0.03 % ID/g × body wt. in kg. For the same compound, the “% ID/g normalized for body weight, Lungs” value ([1]; 30 min p.i.) was 0.07 ± 0.00 % ID/g × body wt. in kg, the “% ID/g normalized for body weight, Rest of cerebrum” value ([1]; 30 min p.i.) was 0.041 ± 0.00 % ID/g × body wt. in kg and the “% ID/g normalized for body weight, Spleen + Pancreas” value ([1]; 30 min p.i.) was 0.11 ± 0.01 % ID/g × body wt. in kg. For the same compound, the “% ID/g normalized for body weight, Striatum” value ([1]; 30 min p.i.) was 0.125 % ID/g × body wt. in kg and 0.125 ± 0.01 % ID/g × body wt. in kg, the “% ID/g, Blood” value ([1]; 30 min p.i.) was 0.18 ± 0.03 % ID/g and the “% ID/g, Cerebellum” value ([1]; 30 min p.i.) was 0.104 ± 0.005 % ID/g. For the same compound, the “% ID/g, Cerebrum + Cerebellum” value ([1]; 30 min p.i.) was 0.151 ± 0.016 % ID/g, the “% ID/g, Cerebrum total” value ([1]; 30 min p.i.) was 0.157 ± 0.019 % ID/g and the “% ID/g, Cortex” value ([1]; 30 min p.i.) was 0.145 ± 0.026 % ID/g. For the same compound, the “% ID/g, Heart” value ([1]; 30 min p.i.) was 0.24 ± 0.04 % ID/g, the “% ID/g, Hippocampus” value ([1]; 30 min p.i.) was 0.108 ± 0.013 % ID/g and the “% ID/g, Kidneys” value ([1]; 30 min p.i.) was 0.68 ± 0.12 % ID/g. The “% ID/g, Liver” value ([1]; 30 min p.i.) was 3.85 ± 0.04 % ID/g, the “% ID/g, Lungs” value ([1]; 30 min p.i.) was 0.24 ± 0.02 % ID/g and the “% ID/g, Rest of cerebrum” value ([1]; 30 min p.i.) was 0.149 ± 0.019 % ID/g. For the same compound, the “% ID/g, Spleen + Pancreas” value ([1]; 30 min p.i.) was 0.40 ± 0.02 % ID/g, the “% ID/g, Striatum” value ([1]; 30 min p.i.) was 0.458 ± 0.041 % ID/g and the “radioactivity concentration, the other brain regions (than striatum)” value ([1]; 30 min p.i.) was ≤ 0.040 % ID/g corrected for body weight. For the same compound, the “striatum/blood ratio (from % ID/g normalized for body weight)” value ([1]; 30 min p.i.) was 2.61, the “striatum/cerebellum ratio (from % ID/g normalized for body weight)” value ([1]; 30 min p.i.) was 4.38 and the “striatum/hippocampus ratio (from % ID/g normalized for body weight)” value ([1]; 30 min p.i.) was 4.25. For the same compound, the “peak (maximum) striatum-to-cerebellum ratio” value ([2]; baseline microPET) was 4.4, the “time of peak striatum-to-cerebellum ratio” value ([2]; baseline microPET) was “about 6 min p.i” and the “time until which peak striatum-to-cerebellum ratio remained” value ([2]; baseline microPET) was “about 13 min p.i”. For the same compound, the “BP (binding potential) at baseline” value ([2]; simplified reference tissue model, cerebellum as reference) was 2.5.

Source: patent publication US8852554B2, “Radiolabelled PDE10 ligands” (Janssen Pharmaceutica NV, priority 2009, dated 2014)
